From patent US8461176B2, “Enantiomerically enriched aryloazol-2-yl cyanoethylamino compounds, method of making and method of using thereof” (Merial Limited, priority 2008, dated 2013)

Test system: Haemonchus contortus
Experiment: Method A: screening of activity against Haemonchus contortus L1 larvae in microtitre plate (development to L3 / motility)
Conditions: Haemonchus contortus, 96 h, 4 days assessment; for inhibition at 0.15 ppm: test concentration 0.15 ppm; for inhibition at 0.04 ppm: test concentration 0.04 ppm; for inhibition at 0.01 ppm: test concentration 0.01 ppm; for inhibition at 0.0025 ppm: test concentration 0.0025 ppm; for inhibition at 0.6 ppm: test concentration 0.6 ppm
From the text: Method A: Screening Method to Test Activity of Compounds Against Haemonchus contortus.

In the case of `CC(C#N)(Cn1nc2c(Cl)cc(Cl)c(Cl)c2n1)NC(=O)c1ccc(C(F)(F)F)c(F)c1` (centres unmarked) [Compound 1.146, N-[1-Cyano-1-methyl-2-(4,5,7-trichloro-2H-benzotriazol-2-yl)-ethyl]-3-fluoro-4-trifluoromethylbenzamide], the inhibition at 0.15 ppm is reported as ≥ 90%.

For `CC(C#N)(Cn1nc2c(Cl)cc(Cl)c(Cl)c2n1)NC(=O)c1ccc(I)cc1` (centres unmarked) [Compound 1.100, N-[1-Cyano-1-methyl-2-(4,5,7-trichloro-2H-benzotriazol-2-yl)-ethyl]-4-iodobenzamide], the inhibition at 0.04 ppm was ≥ 90%.

`CC(C#N)(Cn1cc2ncc(Br)cc2n1)NC(=O)c1ccc(I)cc1` (centres unmarked) [Compound 3.049, N-[2-(6-Bromo-2H-pyrazolo[4,3-b]pyridin-2-yl)-1-cyano-1-methylethyl]-4-iodobenzamide] was tested, and the inhibition at 0.04 ppm was ≥ 90%.

For `CC(C#N)(Cn1cc2ncc(Br)cc2n1)NC(=O)c1ccc(Cl)cc1` (centres unmarked) [Compound 3.046, N-[2-(6-Bromo-2H-pyrazolo[4,3-b]pyridin-2-yl)-1-cyano-1-methylethyl]-4-chlorobenzamide], the inhibition at 0.15 ppm was ≥ 90%.

In the case of `CCOc1c2cc(Cl)ccc2nn1CC(C)(C#N)NC(=O)c1ccc(OC(F)(F)F)cc1` (centres unmarked) [Compound 2.014, N-[2-(5-Chloro-3-ethoxy-2H-indazol-2-yl)-1-cyano-1-methylethyl]-4-trifluoromethoxybenzamide], the inhibition at 0.15 ppm is reported as ≥ 90%.

For `COc1c2ccccc2nn1CC(C)(C#N)NC(=O)c1ccc(OC(F)(F)F)cc1` (centres unmarked) [Compound 2.016, N-[1-Cyano-2-(3-methoxy-2H-indazol-2-yl)-1-methylethyl]-4-trifluoromethoxybenzamide], the inhibition at 0.15 ppm was ≥ 90%.

For `CC(C#N)(Cn1nc2c(Cl)cc(Cl)c(Cl)c2n1)NC(=O)c1ccc(OC(F)(F)F)cc1` (single isomer, unassigned; (-)) [Compound 1.097, (−)-N-[1-Cyano-1-methyl-2-(4,5,7-trichloro-2H-benzotriazol-2-yl)-ethyl]-4-trifluoromethoxybenzamide], the inhibition at 0.3 ppm (test concentration 0.3 ppm) was < 90%.

With `CC(C#N)(Cn1nc2cc(Cl)cnc2c1Br)NC(=O)c1ccc(OC(F)(F)F)cc1` (centres unmarked) [Compound 3.019, N-[2-(3-Bromo-6-chloro-2H-pyrazolo[4,3-b]pyridin-2-yl)-1-cyano-1-methylethyl]-4-trifluoromethoxybenzamide] the inhibition at 0.01 ppm was ≥ 90%.

For `COc1nc2cn(CC(C)(C#N)NC(=O)c3ccc(OC(F)(F)F)cc3)nc2cc1Br` (centres unmarked) [Compound 3.052, N-[2-(6-Bromo-5-methoxy-2H-pyrazolo[4,3-b]pyridin-2-yl)-1-cyano-1-methylethyl]-4-trifluoromethoxybenzamide], the inhibition at 0.01 ppm was ≥ 90%.

With `CC(C#N)(Cn1nc2c(Br)cc(Cl)c(Br)c2n1)NC(=O)c1ccc(OC(F)(F)C(F)F)cc1` (centres unmarked) [Compound 1.099, N-[2-(5-Chloro-4,7-dibromo-2H-benzotriazol-2-yl)-1-cyano-1-methylethyl]-4-(1,1,2,2-tetrafluoroethoxy)benzamide] the inhibition at 0.01 ppm was ≥ 90%.

With `CC(C#N)(Cn1cc2c(Cl)cc(Cl)c(Cl)c2n1)NC(=O)c1ccc(C(F)(F)F)cc1F` (centres unmarked) [Compound 2.187, N-[1-Cyano-1-methyl-2-(4,6,7-trichloro-2H-indazol-2-yl)ethyl]-2-fluoro-4-trifluoromethylbenzamide] the inhibition at 0.01 ppm was ≥ 90%.

`CC(C#N)(Cn1cc2ncc(Br)cc2n1)NC(=O)c1ccc(Oc2ccccc2)cc1` (centres unmarked) [Compound 3.048, N-[2-(6-Bromo-2H-pyrazolo[4,3-b]pyridin-2-yl)-1-cyano-1-methylethyl]-4-phenoxybenzamide] was tested, and the inhibition at 0.01 ppm was ≥ 90%.

`CCOc1c2ccc(Cl)cc2nn1CC(C)(C#N)NC(=O)c1ccc(OC(F)(F)F)cc1` (centres unmarked) [Compound 2.027, N-[2-(6-Chloro-3-ethoxy-2H-indazol-2-yl)-1-cyano-1-methylethyl]-4-trifluoromethoxybenzamide] was tested, and the inhibition at 0.15 ppm was ≥ 90%.

In the case of `CC(C#N)(Cn1cc2ncc(Br)cc2n1)NC(=O)c1ccc(C(F)(F)F)cc1` (centres unmarked) [Compound 3.047, N-[2-(6-Bromo-2H-pyrazolo[4,3-b]pyridin-2-yl)-1-cyano-1-methylethyl]-4-trifluoromethylbenzamide], the inhibition at 0.04 ppm is reported as ≥ 90%.

For `CC(C#N)(Cn1cc2ncc(I)cc2n1)NC(=O)c1ccc(OC(F)(F)F)cc1` (centres unmarked) [Compound 3.026, N-[1-Cyano-2-(6-iodo-2H-pyrazolo[4,3-b]pyridin-2-yl)-1-methylethyl]-4-trifluoromethoxybenzamide], the inhibition at 0.0025 ppm was ≥ 90%.

With `CC(C#N)(Cn1cc2c(Cl)cc(Cl)c(Cl)c2n1)NC(=O)c1ccc(OC(F)(F)C(F)F)cc1` (centres unmarked) [Compound 2.066, N-[1-Cyano-1-methyl-2-(4,6,7-trichloro-2H-indazol-2-yl)ethyl]-4-(1,1,2,2-tetrafluoroethoxy)benzamide] the inhibition at 0.0025 ppm was ≥ 90%.

In the case of `CC(C#N)(Cn1cc2nc(Br)ccc2n1)NC(=O)c1ccc(OC(F)(F)F)cc1` (centres unmarked) [Compound 3.044, N-[1-Cyano-2-(5-bromo-2H-pyrazolo[4,3-b]pyridin-2-yl)-1-methylethyl]-4-trifluoromethoxybenzamide], the inhibition at 0.6 ppm is reported as ≥ 90%.

In the case of `CC(C#N)(Cn1cc2ncc(Br)cc2n1)NC(=O)c1ccc(-c2ccccc2)cc1` (centres unmarked) [Compound 3.050, N-[2-(6-Bromo-2H-pyrazolo[4,3-b]pyridin-2-yl)-1-cyano-1-methylethyl]-biphenyl-4-carboxamide], the inhibition at 0.15 ppm is reported as ≥ 90%.

For `CC(C#N)(Cn1cc2c(Cl)cc(Cl)c(Cl)c2n1)NC(=O)c1ccc(C(F)(F)F)cc1` (centres unmarked) [Compound 2.062, N-[1-Cyano-1-methyl-2-(4,6,7-trichloro-2H-indazol-2-yl)ethyl]-4-trifluoromethylbenzamide], the inhibition at 0.0025 ppm was ≥ 90%.

For `CC(C#N)(Cn1nc2c(Cl)cc(Cl)c(Cl)c2n1)NC(=O)c1ccc(OC(F)(F)C(F)F)cc1` (centres unmarked) [Compound 1.103, N-[1-Cyano-1-methyl-2-(4,5,7-trichloro-2H-benzotriazol-2-yl)-ethyl]-4-(1,1,2,2-tetrafluoroethoxy)benzamide], the inhibition at 0.01 ppm was ≥ 90%.

`CC(C#N)(Cn1cc2c(Cl)cc(Cl)c(Cl)c2n1)NC(=O)c1cccc(Br)c1` (centres unmarked) [Compound 2.229, 3-Bromo-N-[1-cyano-1-methyl-2-(4,6,7-trichloro-2H-indazol-2-yl)ethyl]benzamide] was tested, and the inhibition at 0.15 ppm was ≥ 90%.

With `CC(C#N)(Cn1nc2c(Cl)cc(Cl)c(Cl)c2n1)NC(=O)c1ccc(C(F)(F)F)cc1F` (centres unmarked) [Compound 1.143, N-[1-Cyano-1-methyl-2-(4,5,7-trichloro-2H-benzotriazol-2-yl)-ethyl]-2-fluoro-4-trifluoromethylbenzamide] the inhibition at 0.04 ppm was ≥ 90%.

For `CC(C#N)(Cn1cc2c(Cl)cc(Cl)c(Cl)c2n1)NC(=O)c1ccc([N+](=O)[O-])cc1` (centres unmarked) [Compound 2.069, N-[1-Cyano-1-methyl-2-(4,6,7-trichloro-2H-indazol-2-yl)ethyl]-4-nitrobenzamide], the inhibition at 0.01 ppm was ≥ 90%.

For `CC(C#N)(Cn1nc2c(Br)cc(Cl)c(Br)c2n1)NC(=O)c1ccc(C#N)cc1` (centres unmarked) [Compound 1.098, N-[2-(5-Chloro-4,7-dibromo-2H-benzotriazol-2-yl)-1-cyano-1-methylethyl]-4-cyanobenzamide], the inhibition at 0.01 ppm was ≥ 90%.

`CC(C#N)(Cn1cc2c(Cl)cc(Cl)c(Cl)c2n1)NC(=O)c1ccc(I)cc1` (centres unmarked) [Compound 2.068, N-[1-Cyano-1-methyl-2-(4,6,7-trichloro-2H-indazol-2-yl)ethyl]-4-iodobenzamide] was tested, and the inhibition at 0.0025 ppm was ≥ 90%.

In the case of `C=Cc1cc(Cl)cc2nn(CC(C)(C#N)NC(=O)c3ccc(OC(F)(F)F)cc3)nc12` (centres unmarked) [Compound 1.075, N-[2-(6-Chloro-4-vinyl-2H-benzotriazol-2-yl)-1-cyano-1-methylethyl]-4-trifluoromethoxybenzamide], the inhibition at 0.15 ppm is reported as ≥ 90%.

`CCCCOc1c2ccc(Cl)cc2nn1CC(C)(C#N)NC(=O)c1ccc(OC(F)(F)F)cc1` (centres unmarked) [Compound 2.031, N-[2-(6-Chloro-3-butoxy-2H-indazol-2-yl)-1-cyano-1-methylethyl]-4-trifluoromethoxybenzamide] was tested, and the inhibition at 0.6 ppm was ≥ 90%.

`CC(C#N)(Cn1cc2nc(Br)c(Br)cc2n1)NC(=O)c1ccc(OC(F)(F)F)cc1` (centres unmarked) [Compound 3.042, N-[1-Cyano-2-(5,6-dibromo-2H-pyrazolo[4,3-b]pyridin-2-yl)-1-methylethyl]-4-trifluoromethoxybenzamide] was tested, and the inhibition at 0.6 ppm was ≥ 90%.

In the case of `CCCCCCc1ccc(C(=O)NC(C)(C#N)Cn2cc3ncc(Br)cc3n2)cc1` (centres unmarked) [Compound 3.051, N-[2-(6-Bromo-2H-pyrazolo[4,3-b]pyridin-2-yl)-1-cyano-1-methylethyl]-4-hexylbenzamide], the inhibition at 0.6 ppm is reported as ≥ 90%.

With `CC(C#N)(Cn1nc2c(Cl)cc(Cl)c(Cl)c2n1)NC(=O)c1ccc(C(F)(F)F)cc1` (centres unmarked) [Compound 1.101, N-[1-Cyano-1-methyl-2-(4,5,7-trichloro-2H-benzotriazol-2-yl)-ethyl]-4-trifluoromethylbenzamide] the inhibition at 0.0025 ppm was ≥ 90%.

In the case of `CCCOc1c2ccc(Cl)cc2nn1CC(C)(C#N)NC(=O)c1ccc(OC(F)(F)F)cc1` (centres unmarked) [Compound 2.029, N-[2-(6-Chloro-3-propoxy-2H-indazol-2-yl)-1-cyano-1-methylethyl]-4-trifluoromethoxybenzamide], the inhibition at 0.6 ppm is reported as ≥ 90%.

For `CC(C#N)(Cn1nc2cc(Cl)c(Cl)cc2n1)NC(=O)c1ccc(OC(F)(F)F)cc1` (centres unmarked) [Compound 1.010, N-[1-Cyano-2-(5,6-dichloro-2H-benzotriazol-2-yl)-1-methylethyl]-4-trifluoromethoxybenzamide], the inhibition at 0.6 ppm was ≥ 90%.

In the case of `CC(C#N)(Cn1cc2c(Cl)cc(Cl)c(Cl)c2n1)NC(=O)c1ccc(C#N)cc1` (centres unmarked) [Compound 2.063, N-[1-Cyano-1-methyl-2-(4,6,7-trichloro-2H-indazol-2-yl)ethyl]-4-cyanobenzamide], the inhibition at 0.0025 ppm is reported as ≥ 90%.

With `CC(C#N)(Cn1cc2c(Cl)cc(Cl)c(Cl)c2n1)NC(=O)c1ccc(C(F)(F)F)c(F)c1` (centres unmarked) [Compound 2.190, N-[1-Cyano-1-methyl-2-(4,6,7-trichloro-2H-indazol-2-yl)ethyl]-3-fluoro-4-trifluoromethylbenzamide] the inhibition at 0.01 ppm was ≥ 90%.

In the case of `CC(C#N)(Cn1cc2ncc(Br)cc2n1)NC(=O)c1ccc(OC(F)(F)F)cc1F` (centres unmarked) [Compound 3.056, N-[2-(6-Bromo-2H-pyrazolo[4,3-b]pyridin-2-yl)-1-cyano-1-methylethyl]-2-fluoro-4-trifluoromethoxybenzamide], the inhibition at 0.04 ppm is reported as ≥ 90%.
